The values below come from PubChem BioAssay (NCI).

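48-hour exposure; five concentrations; linearly interpolated endpoints. GI50 marks 50% less growth. TGI: total growth inhibition.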 A value given as a limit tells only on which side of the number the result lay.

Test systems include T-47D breast; TK-10 renal; OVCAR-4 ovarian; U251 CNS; HT29 colon; MCF7 breast; OVCAR-3 ovarian; ACHN renal; HCC-2998 colon; UACC-257 melanoma.
Holding throughout (assay): NCI anticancer screen, dose series, 48 h

Take `COC(=O)/C=C/c1cc(OC(C)=O)c2c(c1)C(C(=O)OC)C(c1ccc(OC(C)=O)c(OC(C)=O)c1)O2` (stereo not given): the GI50 with T-47D breast was 3.11 µM; in the assay with TK-10 renal, 8.98 µM; in the assay with OVCAR-4 ovarian, 0.345 µM; in the assay with U251 CNS, 0.11 µM; with HT29 colon, 2.65 µM; with MCF7 breast it was 0.0353 µM. Moreover, the GI50 is 0.0374 µM in the assay with OVCAR-3 ovarian, 0.0779 µM in the assay on ACHN renal, 0.461 µM in the assay on HCC-2998 colon and 13.7 µM with UACC-257 melanoma. In addition, the TGI was greater than 76.8 µM in the assay on T-47D breast; greater than 93.2 µM with TK-10 renal; 49.7 µM in the assay with OVCAR-4 ovarian; greater than 50.9 µM with U251 CNS; greater than 77.5 µM in the assay on HT29 colon; 48.6 µM with MCF7 breast. For the same molecule, the TGI was 15.8 µM with OVCAR-3 ovarian, 35.5 µM with ACHN renal, 48.4 µM in the assay on HCC-2998 colon and greater than 77.6 µM in the assay with UACC-257 melanoma.
As to `Cc1cccc(NC2=C(Cl)C(=O)c3nc(C)ccc3C2=O)c1`, the GI50 with T-47D breast was 1.65 µM; with TK-10 renal, 2.58 µM; in the assay on OVCAR-4 ovarian, 1.2 µM; in the assay with U251 CNS it was 1.09 µM; in the assay on HT29 colon, 2.94 µM; in the assay with MCF7 breast, 0.656 µM. Moreover, the GI50 with OVCAR-3 ovarian is 0.262 µM; in the assay with ACHN renal, 1.24 µM; in the assay on HCC-2998 colon, 1.69 µM; in the assay with UACC-257 melanoma, 1.63 µM. Also, the TGI with T-47D breast is 4.29 µM; with TK-10 renal it was 4.17 µM; with OVCAR-4 ovarian, 2.45 µM; in the assay on U251 CNS, 2.67 µM; in the assay with HT29 colon, 11.9 µM; in the assay with MCF7 breast, 3.06 µM. In addition, the TGI with OVCAR-3 ovarian was found to be 1.18 µM; in the assay with ACHN renal, 2.53 µM; in the assay on HCC-2998 colon, 3.22 µM; in the assay with UACC-257 melanoma, 3.12 µM.
For `COc1ccc(-c2cc(=O)oc3c4c(ccc23)OCN(Cc2ccc(F)cc2)C4)cc1`, the GI50 was 13.5 µM with T-47D breast; 16.1 µM in the assay on TK-10 renal; 17.4 µM in the assay with OVCAR-4 ovarian; 14.8 µM with U251 CNS; 17.6 µM with HT29 colon; 15.7 µM in the assay on MCF7 breast. Further, the GI50 with OVCAR-3 ovarian was 15.3 µM; with ACHN renal it was 19.4 µM; in the assay on HCC-2998 colon, 19.2 µM; in the assay with UACC-257 melanoma it was 14.9 µM. Further, the TGI is 43.8 µM with T-47D breast; 49.3 µM in the assay with TK-10 renal; 43.2 µM with OVCAR-4 ovarian; 29 µM in the assay on U251 CNS; 34.9 µM in the assay on HT29 colon; 34.5 µM in the assay on MCF7 breast. Also, the TGI in the assay with OVCAR-3 ovarian came to 29.9 µM; in the assay on ACHN renal, 65 µM; in the assay with HCC-2998 colon it was 37 µM; with UACC-257 melanoma, 29.9 µM.
As for `CCOC(=O)Nc1c(C)nc2ccccn12`, the GI50 in the assay on T-47D breast, in the assay on TK-10 renal, in the assay with OVCAR-4 ovarian, in the assay with U251 CNS, with HT29 colon and in the assay on MCF7 breast was greater than 100 µM in each case. For the same molecule, the GI50 in the assay with OVCAR-3 ovarian, in the assay with ACHN renal, in the assay with HCC-2998 colon and in the assay on UACC-257 melanoma was greater than 100 µM in each case. Also, the TGI in the assay on T-47D breast, in the assay on TK-10 renal, with OVCAR-4 ovarian, with U251 CNS, in the assay with HT29 colon and in the assay with MCF7 breast was greater than 100 µM in each case. For the same molecule, the TGI with OVCAR-3 ovarian, in the assay with ACHN renal, in the assay on HCC-2998 colon and in the assay on UACC-257 melanoma was greater than 100 µM throughout.
In the case of `CCCCCCCCSC1=C(Cl)C(=O)C(OC)=C(OC)C1=O`, the TGI came to 36.2 µM in the assay on T-47D breast; 28.5 µM in the assay with TK-10 renal; 29.8 µM in the assay on OVCAR-4 ovarian; 26.6 µM in the assay with U251 CNS; 34.8 µM with HT29 colon; 17.4 µM in the assay on MCF7 breast. Also, the TGI turned out to be 23.8 µM in the assay on OVCAR-3 ovarian, 23 µM in the assay with ACHN renal, 32.4 µM in the assay with HCC-2998 colon and 21.4 µM with UACC-257 melanoma.
Regarding `C=C(C)C(C1C=C(CCC(C=O)=C(C)C)C(=O)O1)C1(OC)C=C(C)C(=O)O1` (stereo not given), the GI50 in the assay with T-47D breast was 25.8 µM; in the assay with TK-10 renal, greater than 100 µM; in the assay with OVCAR-4 ovarian, greater than 100 µM; in the assay on U251 CNS, 74.7 µM; with HT29 colon, 57.9 µM; in the assay with MCF7 breast, 7.6 µM. The GI50 with OVCAR-3 ovarian, in the assay with ACHN renal, in the assay on HCC-2998 colon and in the assay on UACC-257 melanoma was greater than 100 µM throughout. The TGI is greater than 100 µM in the assay on T-47D breast; greater than 100 µM with TK-10 renal; greater than 100 µM in the assay on OVCAR-4 ovarian; greater than 100 µM with U251 CNS; greater than 100 µM with HT29 colon; 30.3 µM with MCF7 breast. Further, the TGI with OVCAR-3 ovarian, in the assay with ACHN renal, in the assay on HCC-2998 colon and in the assay on UACC-257 melanoma was greater than 100 µM throughout.
For the molecule `C[C@H](CCOc1cccc(CC(=O)O)c1)N(Cc1cccc(C(F)(F)F)c1Cl)CC(c1ccccc1)c1ccccc1`, the GI50 in the assay on T-47D breast is 4.47 µM; with TK-10 renal it was 10.3 µM; with OVCAR-4 ovarian, 5.26 µM; with U251 CNS, 4.1 µM; in the assay with HT29 colon, 4.43 µM; in the assay on MCF7 breast it was 3.53 µM. Also, the GI50 in the assay with OVCAR-3 ovarian was 4.77 µM; with ACHN renal, 5.11 µM; with HCC-2998 colon, 5.15 µM; in the assay with UACC-257 melanoma it was 10.2 µM. For the same molecule, the TGI was found to be 33.6 µM in the assay on T-47D breast; 23.1 µM in the assay with TK-10 renal; 21.9 µM with OVCAR-4 ovarian; 19.3 µM in the assay with U251 CNS; 22.9 µM in the assay with HT29 colon; 17.9 µM in the assay with MCF7 breast. Besides, the TGI with OVCAR-3 ovarian turned out to be 15.9 µM; in the assay with ACHN renal, 17 µM; in the assay with HCC-2998 colon, 18 µM; with UACC-257 melanoma it was 25.2 µM.
